The text below walks through data of ChEMBL document CHEMBL3632573, “Triazine as a promising scaffold for its versatile biological behavior” (Eur J Med Chem, 2015).

For the experiment, the target named is Histone deacetylase. Kind of experiment: Inhibition of HDAC (unknown origin). The experiment is classed as protein assay, Homo sapiens.

As a reminder, the IC50 is the concentration that gives 50% inhibition. High values mean lower potency, low ones higher potency. Consider `Nc1nc(NCc2ccc(C(=O)Nc3ccccc3N)cc2)nc(NC2CCCC2)n1`, for which the IC50 is less than 200 nM.
